# Patent US20230203081A1, “LINCOSAMIDE ANTIBIOTICS AND USES THEREOF” (President and Fellows of Harvard College, priority 2020, published 2023)
# Read-outs that look alike come from different tables or passages of the source.
# What was measured:
# [1] = Plasma protein binding, species h; type: in vitro ADME; conditions: human
# [2] = system: methicillin-resistant Staphylococcus aureus (MRSA); experiment: MIC, panel of clinically derived MRSA strains; type: cell-based; conditions: result in words
# Procedure: Minimum inhibitory concentrations (MICs) were determined by broth microdilution method or agar dilution method following the Clinical and Laboratory Standards Institute guidelines. Standard bacterial strains were obtained from American Type Culture Collection (ATCC). Other bacterial strains were obtained from hospitals and commercial sources, so noted in Table 11. Before the start of the MIC experiment, standard and test compound stock solutions were prepared in dimethyl sulfoxide (DMSO, Aldrich D2650) at a stock concentration of 5,120 μg/mL. The compound concentration range typically employed for each experiment was 128-0.06 μg/mL (2.5% final DMSO concentration). Clindamycin was used as a comparator in all experiments and each experiment was performed in triplicate. Specialized procedures were employed for streptococcal and anaerobic strains. All other bacterial strains were sub-cultured on blood agar plates (tryptic soy agar with 5% sheep blood, Hardy Diagnostics) and incubated overnight at 35° C. Organisms were suspended in cation-adjusted Mueller-Hinton broth (CaMHB, BD 212322) and optical density was adjusted to 0.5 McFarland standard. Suspensions were further diluted to obtain a final inoculum of 5×10^5 CFU/mL for broth microdilution experiments.
# S. pyogenes ATCC 19615 = type: in vivo
# Procedure: The optical density of the bacterial suspension was adjusted to 0.1 at 600 nm using sterile BHIB and was then further diluted 1:1 in 10% hog gastric mucin (HGM, type III) to prepare the infecting inoculum in 5% HGM. Mice were infected by intraperitoneal injection of 250 μL, infecting inoculum, representing 1-2×10^6 CFU per animal. […] Animals were monitored for survival for seven days following infection.
# A. baumanii ATCC 19606 = experiment: Murine neutropenic thigh infection model; type: in vivo, mice; conditions: neutropenic mouse thigh, A. baumanii ATCC 19606 (FIG. 4C)
# [3] = system: susceptible S. aureus and E. faecium strains; experiment: Time-kill studies; type: cell-based
# Procedure: . Experiments were performed in duplicate following CLSI guidelines. An inoculum was prepared in Mueller-Hinton broth (MHB) containing 0.5-5×10^6 CFU/mL of test organism. Cultures were incubated at 37° C. in a shaker incubator at 110 rpm; a flask containing bacteria left unexposed to antibiotic was used as untreated control. At time points 0, 1, 3, 6, and 24 h following administration of antibiotic, bacterial counts were determined from each flask by serial dilution and plating on brain heart infusion agar (BD, Sparks, M D). Plates were incubated at 37° C. in incubators for 18-24 hours to determine bacterial counts. For streptococcal strains, blood agar plates (Tryptic Soy Agar with 5% Sheep Blood) were used for culturing the organisms (plates were incubated in the presence of 5% CO2), and time-kill studies were performed in media supplemented with 5% laked horse blood.
# E. coli MP-9 ΔTolC = experiment: MIC (broth microdilution or agar dilution, CLSI); type: cell-based; conditions: Escherichia coli
# Summary of the method: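 Inoculum for broth microdilution was 5×10^5 CFU/mL final, prepared from overnight 35° C blood-agar subcultures (separate handling for streptococcal and anaerobic strains); MICs read by CLSI broth microdilution or agar dilution.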
smiles,measurement,setting,value
CSC1O[C@H]([C@H](NC(=O)[C@H]2NC[C@@H]3C[C@H](CC(C)C)CCO[C@H]32)[C@H](C)Cl)C(O)[C@@H](O)[C@H]1O (some centres unmarked) [FSA-513018b],fraction unbound,[1],0.08
same,activity against a panel of clinically derived MRSA strains,[2],uniformly high activity
same,Mice surviving,"S. pyogenes ATCC 19615; 1 mg/kg i.v., Day 1, n=8, clindamycin given as clindamycin phosphate",8
same,Mice surviving,"S. pyogenes ATCC 19615; 1 mg/kg i.v., Day 2, n=8",7
same,Mice surviving,"S. pyogenes ATCC 19615; 1 mg/kg i.v., Day 3, n=8",7
same,Mice surviving,"S. pyogenes ATCC 19615; 1 mg/kg i.v., Day 4, n=8",7
same,Mice surviving,"S. pyogenes ATCC 19615; 1 mg/kg i.v., Day 5, n=8",7
same,Mice surviving,"S. pyogenes ATCC 19615; 1 mg/kg i.v., Day 6, n=8",7
same,Mice surviving,"S. pyogenes ATCC 19615; 1 mg/kg i.v., Day 7, n=8",7
same,Mice surviving,"S. pyogenes ATCC 19615; 3 mg/kg i.v., Day 1, n=8",8
same,Mice surviving,"S. pyogenes ATCC 19615; 3 mg/kg i.v., Day 2, n=8",8
same,Mice surviving,"S. pyogenes ATCC 19615; 3 mg/kg i.v., Day 3, n=8",8
same,Mice surviving,"S. pyogenes ATCC 19615; 3 mg/kg i.v., Day 4, n=8",8
same,Mice surviving,"S. pyogenes ATCC 19615; 3 mg/kg i.v., Day 5, n=8",8
same,Mice surviving,"S. pyogenes ATCC 19615; 3 mg/kg i.v., Day 6, n=8",8
same,Mice surviving,"S. pyogenes ATCC 19615; 3 mg/kg i.v., Day 7, n=8",8
same,Mice surviving,"S. pyogenes ATCC 19615; 10 mg/kg i.v., Day 1, n=8",8
same,Mice surviving,"S. pyogenes ATCC 19615; 10 mg/kg i.v., Day 2, n=8",8
same,Mice surviving,"S. pyogenes ATCC 19615; 10 mg/kg i.v., Day 3, n=8",8
same,Mice surviving,"S. pyogenes ATCC 19615; 10 mg/kg i.v., Day 4, n=8",8
same,Mice surviving,"S. pyogenes ATCC 19615; 10 mg/kg i.v., Day 5, n=8",8
same,Mice surviving,"S. pyogenes ATCC 19615; 10 mg/kg i.v., Day 6, n=8",8
same,Mice surviving,"S. pyogenes ATCC 19615; 10 mg/kg i.v., Day 7, n=8",8
same,rescue of infected animals,"S. pyogenes ATCC 19615; S. pyogenes systemic infection, i.v. twice daily for two days",complete rescue
same,tolerability,"S. pyogenes ATCC 19615; infected mice, 1, 3 or 10 mg/kg i.v. twice daily for two days, all dose levels",well-tolerated
same,efficacy in thigh infection model,A. baumanii ATCC 19606,effective
same,cidality in time-kill,[3]; certain highly susceptible strains,concentration-dependent cidality
same,mode of action in broth culture profiling (time-kill),[3]; result in words,bacteriostatic
same,MIC,E. coli MP-9 ΔTolC,0.5 µg/mL
